According to the supplement of paper PMC11208160:

experiment: recombinant barcode read abundance after kanamycin selection (control-corrected) (log10(CPM+1)); higher = more efficient recombination; sequences stand for … in AGTGCAGAGAAAATCGGCCAGTTTTCTCTGCCTGCAGTCCGCATGCCGT…AGATTTATGCAGCGGACTGCCTTTCTCCCAAAGTGATAAACCGGACAGTATCATGGACCGGTTTTCCCGGTAATCCGTATTTGCAAGGTTGGTTTCACT; site = the 11-nt target
Outline: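 A promoter, a target, a barcode and the first 104 bridge RNA bases under J23119 made up each oligo. Oligos were Gibson-cloned into a vector bearing the other 73 bp and a T7-inducible recombinase, then co-electroporated into E. coli with a donor plasmid and plated in duplicate on chloramphenicol/ampicillin LB agar (control) or chloramphenicol/ampicillin/kanamycin with 0.1 mM IPTG. Recombination efficiency is the averaged, control-corrected counts per million of recombinant-junction barcodes. Reported values are log10(CPM+1).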
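Also: IS621 recombinase and bridge RNA in Escherichia coli cells.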

Sequence | recombinant barcode read abundance (log10)
GCCAGACCTTGGGTTCTAACCTGTTGCCT (site GCCAAACCTAG) | 0.0596
GACTGTTCTTGGGTTCTAACCTGTTGCCT (site GCCTGTTCTAG) | 0.0949
GGGGCATCTTGGGTTCTAACCTGTTGCCT (site GGGGCATCTAG) | 0.0863
TAGGTGACTTGGGTTCTAACCTGTTGCGG (site TAGGTGCCTCC) | 0.285
ATGACTACTTGGGTTCTAACCTGTTGCTA (site ATGACTACTGA) | 0.136
GGGAACGCTTGGGTTCTAACCTGTTGCCT (site GGGAACGCTAG) | 2.85
GAGAAATCTTGGGTTCTAACCTGTTGCCT (site GAGACATCTAG) | 0.249
TTGAGTGCTTGGGTTCTAACCTGTTGCCT (site TTGATTGCTAG) | 0.254
CAGCACTCTTGGGTTCTAACCTGTTGCTA (site CAGCACTCTTA) | 2.12
TAGCCTACTTGGGTTCTAACCTGTTGCGC (site TAGCCTACTGC) | 1.84
CTTGGGCCTTGGGTTCTAACCTGTTGCCT (site CGTGGGCCTAG) | 0.186
GCGGGTCCTTGGGTTCTAACCTGTTGCCT (site GCTGGTCCTAG) | 0.532
TGCGATACTTGGGTTCTAACCTGTTGCTT (site ACACGAGCTCT) | 0.0799
CGGGTAACTTGGGTTCTAACCTGTTGCCT (site CTGGAAACTAG) | 0.0897
CAACGACCTTGGGTTCTAACCTGTTGCCT (site TAACGACCTAG) | 0.166
CTTTGGCCTTGGGTTCTAACCTGTTGCTT (site CCTTGGGCTAA) | 0.439
GTGTGGCCTTGGGTTCTAACCTGTTGCTT (site GAGTGCCCTAA) | 0.107
GACATTCCTTGGGTTCTAACCTGTTGCCT (site CACATTCCTAG) | 0.113
TTAGCCTCTTGGGTTCTAACCTGTTGCCT (site TTAGCTTCTAG) | 0.00901
GCCCTATCTTGGGTTCTAACCTGTTGCCT (site GCCCGATCTAG) | 0.0182
TTGATTGCTTGGGTTCTAACCTGTTGCCT (site TTGAGTGCTAG) | 0.425
TGTCAAACTTGGGTTCTAACCTGTTGCGT (site TGTCAAACTAC) | 0.838

Sequence | recombinant barcode read abundance (log10)
TTAAGCCCTTGGGTTCTAACCTGTTGCCT (site TTAAGCCCTAG) | 1.41
CTACACACTTGGGTTCTAACCTGTTGCTA (site CTACACACTTA) | 1.91
TAGAGCACTTGGGTTCTAACCTGTTGCCT (site GAGAGCACTAG) | 0.0873
GGAGTCACTTGGGTTCTAACCTGTTGCGG (site GGAGTCACTCC) | 2.69
GTACAAGCTTGGGTTCTAACCTGTTGCCT (site GTACAAGCTAG) | 1.08
CTGGGTCCTTGGGTTCTAACCTGTTGCTT (site CTGGGTCCTAA) | 1.48
TGTCGGACTTGGGTTCTAACCTGTTGCAA (site TGTCGGACTTT) | 0.421
CCTCGCGCTTGGGTTCTAACCTGTTGCCT (site CCTCGCGCTAG) | 0.354
ATGGGCCCTTGGGTTCTAACCTGTTGCTC (site ATGGGCCCTGA) | 2.09
GCGATGTCTTGGGTTCTAACCTGTTGCCT (site GGGATGTCTAG) | 0.514
GTCGTTGCTTGGGTTCTAACCTGTTGCCT (site ATCGTTGCTAG) | 0.522
ACACCGCCTTGGGTTCTAACCTGTTGCCT (site GCACCGCCTAG) | 0.192
GTAGGTCCTTGGGTTCTAACCTGTTGCCG (site GTAGGTCCTCG) | 2.48
TGTCAAACTTGGGTTCTAACCTGTTGCGT (site TGTCAACCTAC) | 0.0278
ACTTCTTCTTGGGTTCTAACCTGTTGCCT (site ACTTCTTCTAG) | 0.0747
AGTCTGCCTTGGGTTCTAACCTGTTGCTG (site AGTCTGCCTCA) | 0.686
GATACAGCTTGGGTTCTAACCTGTTGCCT (site GACACAGCTAG) | 0.444
GGAACCTCTTGGGTTCTAACCTGTTGCTT (site GGAACCTCTAA) | 0.697
CAGGCCACTTGGGTTCTAACCTGTTGCCT (site CAGGCCACTAG) | 0.945
CAAACAGCTTGGGTTCTAACCTGTTGCCT (site CAAACAACTAG) | 0.0742
GTGTAGGCTTGGGTTCTAACCTGTTGCAG (site GTGTAGTCTCG) | 0.0205
GACTGGGCTTGGGTTCTAACCTGTTGCTG (site GACTGGCCTAA) | 0.239

Sequence | recombinant barcode read abundance (log10)
TAGCGGACTTGGGTTCTAACCTGTTGCCT (site TAGCTGACTAG) | 0.0737
TACGACTCTTGGGTTCTAACCTGTTGCTT (site TACGACTCTAA) | 1.73
AGAGAGACTTGGGTTCTAACCTGTTGCCT (site AGAGCGACTAG) | 0.0685
TAAGTCCCTTGGGTTCTAACCTGTTGCCT (site TAAGTCCCTAG) | 1.9
CCATAGTCTTGGGTTCTAACCTGTTGCTT (site CCATAGTCTAA) | 0.732
TGTCGCTCTTGGGTTCTAACCTGTTGCCT (site TGCCGCTCTAG) | 0.0379
CAAAGATCTTGGGTTCTAACCTGTTGCCT (site CTAAGATCTAG) | 0.165
GGATGCACTTGGGTTCTAACCTGTTGCCA (site GGATGCACTTG) | 0.953
CCTCAGGCTTGGGTTCTAACCTGTTGCCT (site CCTCAGGCTCG) | 0.0672
GGAATCCCTTGGGTTCTAACCTGTTGCCT (site GGAATACCTAG) | 0.0974
CGGCTTCCTTGGGTTCTAACCTGTTGCGT (site CAACTTCCTAC) | 0.117
TAGGTGGCTTGGGTTCTAACCTGTTGCCT (site TAGGTGGCTAG) | 0.463
TTGAGTGCTTGGGTTCTAACCTGTTGCCT (site TTGAATGCTAG) | 0.259
TTCTTACCTTGGGTTCTAACCTGTTGCCT (site TTCTTACCTAG) | 0.654
GGATATACTTGGGTTCTAACCTGTTGCCT (site GGATTTACTAG) | 0.186
CTTCGAGCTTGGGTTCTAACCTGTTGCTG (site CTTCGAGCTCC) | 0.193
TAACGTACTTGGGTTCTAACCTGTTGCTT (site TAATGTACTAA) | 0.0185
ACTAGCTCTTGGGTTCTAACCTGTTGCCT (site ACTTGCTCTAA) | 0.0142
CTTAGGACTTGGGTTCTAACCTGTTGCCA (site CTTAGGACTCG) | 0.0285
ACGCTAGCTTGGGTTCTAACCTGTTGCCT (site TCGCTAGCTAG) | 0.0462
TCCGAAGCTTGGGTTCTAACCTGTTGCTA (site TCCTAAGCTTA) | 0.0103
CCTTCTCCTTGGGTTCTAACCTGTTGCAT (site CCTTCTCCTAT) | 0.319

Sequence | recombinant barcode read abundance (log10)
CACAGCACTTGGGTTCTAACCTGTTGCCT (site CACATCACTAG) | 0.0547
CTAAGAACTTGGGTTCTAACCTGTTGCCT (site CTAAGAACTAA) | 0.0228
GATAGCTCTTGGGTTCTAACCTGTTGCCT (site CATAGCTCTAG) | 0.0838
GGCTTACCTTGGGTTCTAACCTGTTGCCT (site TGCTTACCTAG) | 0.395
GGTACGCCTTGGGTTCTAACCTGTTGCGT (site GGTACTCCTAC) | 0.213
GTCGCGACTTGGGTTCTAACCTGTTGCCT (site GTCGCGGCTAG) | 0.145
AGCTACCCTTGGGTTCTAACCTGTTGCTT (site AGCTACCCTAA) | 0.62
CTAAGATCTTGGGTTCTAACCTGTTGCCT (site CGAAGATCTAG) | 0.0614
CAGCCCTCTTGGGTTCTAACCTGTTGCTA (site CCGCCCTCTAA) | 0.188
GAAAGTGCTTGGGTTCTAACCTGTTGCCT (site CAAAGTGCTAG) | 0.0857
TAATCGCCTTGGGTTCTAACCTGTTGCCT (site TAATCGTCTAG) | 0
GCAAGGCCTTGGGTTCTAACCTGTTGCCT (site ACAAGGCCTAG) | 0.0435
CACGCTTCTTGGGTTCTAACCTGTTGCTA (site CACGCGTCTCA) | 0.0477
GTCAAGACTTGGGTTCTAACCTGTTGCCA (site GTCAAGACTTG) | 1.03
GAACCTACTTGGGTTCTAACCTGTTGCGG (site GAACCTACTTC) | 0.107
CGGGACACTTGGGTTCTAACCTGTTGCGG (site CGGGACACTCC) | 2.82
TAGTAGTCTTGGGTTCTAACCTGTTGCGT (site TAGTAGTCTAG) | 0.729
GGTCCAACTTGGGTTCTAACCTGTTGCCT (site GGTCTAACTAG) | 0.159
CCTAAACCTTGGGTTCTAACCTGTTGCGT (site CCTAAGCCTAC) | 0.03
ACGCTAGCTTGGGTTCTAACCTGTTGCCT (site ACGCTAGCTAG) | 0.357
